Test results taken from patent US20250381110A1, “SKIN CARE COMPOSITION AND METHOD OF USING THE SAME” (THE PROCTER & GAMBLE COMPANY, priority 2024, published 2025).

What was measured:
p21 = assay: Immunostaining for p21 (percentage of p21-positive cells); format: cell-based, human
Procedure: (§1) Immunofluorescence analyses were performed as described previously (Carroll et al.). In brief, cells were seeded on coverslips in 24-well plates and fixed in 4% formaldehyde in PBS for 10 min at room temperature followed by permeabilization in 0.5% Triton X-100 (Sigma-Aldrich) in PBS for 4 min at room temperature (Ki67 and p21) or in methanol for 4 min at −20° C. (LC3 and p62). Cells were then blocked for 1 h in 5% normal goat serum (Sigma-Aldrich) in PBS at room temperature and incubated with primary antibodies overnight at 4° C. Cells were washed three times and incubated with the appropriate secondary antibodies for 1 h at room temperature (Thermo Fisher Scientific, A31556 and A21235, 1:1000). Cells were washed, and coverslips were mounted on slides with Prolong Gold antifade mountant with DAPI (Invitrogen). Fluorescence images were obtained as described above. The following primary antibodies were used: rabbit anti-Ki67 (Abcam, ab 15580, 1:250), rabbit anti-p21 (CST, 2947, 1:1000), mouse anti-LC3 (NanoTools, 0260-100, 1:200) and rabbit anti-p62 (MBL, PM045, 1:500).

[1] = tested on: human dermal fibroblasts (HDFs); assay: Mitochondrial mass by Mitotracker Green staining; format: cell-based; conditions: HDFs from aged donors; 30 μM, 7 h
Procedure: The Seahorse XF Cell Mito Stress Test Kit (Agilent) was used to measure oxygen consumption rates in adult dermal fibroblasts. One day prior to the assay cells were seeded at either 4000 per well or 3000 per well. Where indicated, fibroblast plates were subjected to 20Gy IR 2 h before assay. […] HDFs were stained with 100 nM Mitotracker Green for mitochondrial density measurement. The Mito Stress Test was performed as per manufacturer's guidelines on a Seahorse XF96 Extracellular Flux analyser using previously optimized conditions. Following assay completion, cells were fixed in 4% PFA for 20 minutes. PFA was then removed, and cells were washed twice with PBS. Following fixation, cells were stained with Hoescht nucleic acid stain (Invitrogen) for 10 min before being washed twice in PBS. Fluorescence was subsequently measured using the PHERAstar FSX plate reader (BMG LABTECH) at 350/460 nm for normalization purposes. Following normalization, OCR measurements were interpreted from data generated from the Agilent Seahorse Wave software version 2.6.3.5. Basal respiration data in unstressed conditions is presented. OCR measurements were further normalised to mitochondrial density to obtain ATP production (pmol/min/mitochondria).

IL-8 = assay: SASP assessment, IL-8 mRNA by qPCR; format: cell-based, human; conditions: HDFs; 30 μM for 5 h prior to IR; 11 days after IR
Procedure: (§2) Quantibody Human Cytokine Arrays for 20 cytokines (RayBiotech; QAH-CYT-1) were performed using conditioned media collected from primary dermal fibroblasts culture. mRNA levels of human IL-6 and IL-8 were measured by quantitative polymerase chain reaction (qPCR. Total RNA was extracted using RNeasy Mini Kit (QIAGEN, 74104). From 500 ng of total RNA, first-strand complementary DNA (cDNA) was produced using SuperScript III reverse transcriptase (Invitrogen, 18080044). Quantitative PCR was performed in a StepOnePlus Real-Time PCR system (Applied Biosystems) using Power SYBR Green PCR Master Mix (Applied Biosystems, 4367659). mRNA levels were determined with the […] and normalised to GAPDH levels.

[2] = tested on: human dermal fibroblasts (HDFs); assay: Average nuclear size by immunofluorescence microscopy; format: cell-based
Procedure: as §1

Ki67 = assay: Immunostaining for Ki67 (percentage of Ki67-positive cells); format: cell-based, human; conditions: HDFs; 30 μM for 5 h prior to IR; 11 days after IR
Procedure: as §1

[3] = tested on: human dermal fibroblasts (HDFs); assay: EdU incorporation assay; format: cell-based; conditions: HDFs from aged donors; 30 μM, 7 h
p62-dependent mitophagy = assay: Luciferase-p62 clearance assay, stated for HDFs; format: cell-based, human; conditions: 10 μM; HDFs as printed
Procedure: FIGS. 15A-15C show hydroxycinnamic acids (HCAs) tested in mitophagy assays in primary HDFs. […] 80,000 mixed aged Fibroblasts expressing the Su9-Halo-GFP reporter were treated for 48 h with the indicated HCAs. A change in the reporter excitation occurs because the GFP tag is quenched in the lysosome environment, indicating mitophagy.
To identify p62-dependent materials which increase mitophagy, a Luciferase-p62 Assay was established. This method provides an approach to measure the ability of a material to modulate p62-dependent mitophagy by using an inducible firefly luciferase-p62 (Fluc-p62) reporter cell system. In this assay, p62 levels are driven by doxycycline treatment. After levels increased, expression of Fluc-p62 is turned off by removal of doxycycline, materials are then added and assessed for how they affect clearance of Fluc-p62 protein, which is proportionate to cellular mitophagy rates (Kelly et al.). […]
Test materials including bioactive materials were screened in mouse embryonic fibroblasts (MEFs, Harada et al.) expressing the TET-inducible p62-fluc construct as previously described (Brown et al.). […] Subsequently, cells were treated with test materials for 48 hours in normal growth medium and analysed using ONE-Glo™+Tox Luciferase Reporter and Cell Viability Assay (Promega) by following the manufacturer's protocol.

IL-6 = assay: SASP assessment, IL-6 mRNA by qPCR; format: cell-based, human
Procedure: as §2

[4] = HDFs from aged donors, 30 μM, 7 h
[5] = HDFs, treatment 5 h prior to IR

`CC(=O)Oc1ccc(N2C(=O)C3C(Cc4ccccc4)NC4(C(=O)Nc5c4ccc(Cl)c5C)C3C2=O)cc1` (centres unmarked) [STOCKIN-57543] was tested, and the p21 expression (p21; [4]) was “decreasing elevated p21 expression”, the “IR-associated increased p21 expression” value (p21; [5]) was “mitigating IR-associated increased p21 expression” and the mitochondrial mass [1] was “restoring mitochondrial mass”. For the same molecule, the “IR-associated increase in IL-8 level (mRNA)” value (IL-8) was “mitigating IR-associated increases in levels of the SASP factors IL-6 and IL-8”, the nuclear size [2, 4] was “decreasing a senescence-associated increase in nuclear size” and the “IR-associated increase in nuclear size” value [2, 5] was “mitigating IR-associated increase in nuclear size”. The “IR-associated decrease in cellular proliferation capacity (Ki67)” value (Ki67) was “mitigating IR-associated decrease in cellular proliferation capacity”, the “cellular proliferation capacity (EdU incorporation)” value [3] was “restoring cellular proliferation capacity” and the “increase p62-dependent mitophagy levels over baseline” value (p62-dependent mitophagy) was 33%. For the same molecule, the “levels of the SASP factor IL-6 (mRNA)” value (IL-6; [4]) was “decreasing levels of the SASP factor IL-6” and the “IR-associated increase in IL-6 level (mRNA)” value (IL-6; HDFs, 30 μM for 5 h prior to IR, 11 days after IR) was “mitigating IR-associated increases in levels of the SASP factors IL-6 and IL-8”.
